From patent publication US10822311B2, “Pyrimidines and variants thereof, and uses therefor” (Afferent Pharmaceuticals Inc., priority 2016, dated 2020)
Where two headings read alike, the source gives them in different places.

What was measured:
[1] = target: T1, human P2X3 receptor (homomeric P2X3 channels) (Homo sapiens, UniProt P56373); assay: FlexStation calcium fluorescence assay, homomeric P2X3 channels in HEK293 cells; type: cell-based; details: for Selectivity P2X3/P2X2/3: Ratio=10^(P2X3pIC50−P2X2/3pIC50); for Selectivity, R = OMe / P2X3 mean pIC50, R = OMe: Table 3B; for P2X3 mean pIC50, R = OMe: Table 2
T1 construct: expressed in transfected cells; host or cells: HEK293 human embryonic kidney cells (HEK-hP2X3)
T1 sequence (P56373 1-397): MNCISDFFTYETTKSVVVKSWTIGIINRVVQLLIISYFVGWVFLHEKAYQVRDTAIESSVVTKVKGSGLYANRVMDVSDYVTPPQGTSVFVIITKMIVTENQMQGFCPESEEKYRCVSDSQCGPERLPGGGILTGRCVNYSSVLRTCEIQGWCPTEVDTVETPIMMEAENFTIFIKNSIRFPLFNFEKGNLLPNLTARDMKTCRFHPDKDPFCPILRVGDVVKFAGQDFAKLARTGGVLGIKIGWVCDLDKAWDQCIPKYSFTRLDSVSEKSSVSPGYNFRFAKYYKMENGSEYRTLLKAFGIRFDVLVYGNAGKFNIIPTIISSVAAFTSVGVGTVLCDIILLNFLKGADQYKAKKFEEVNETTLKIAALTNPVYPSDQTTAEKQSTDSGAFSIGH
Procedure: (§1) 1321N1 human astrocytoma and HEK293 human embryonic kidney cells were stably transfected with human P2X2 and P2X3 receptor subunits to form heteromeric P2X2/3 channels and passaged in flasks. Additionally, HEK293 cells were stably transfected with human P2X3 receptor subunits to form homomeric P2X3 channels.
(§2) Approximately 24 hours before the FlexStation calcium fluorescence experiment, cells were released from their flasks, centrifuged and re-suspended in nutrient medium. The cells were aliquoted into black-wall, clear-bottom 96 well plates at a density of 25,000 cells per well and incubated overnight in a humidified, CO2-enriched (5%) atmosphere at 37° C.
(§3) On the day of the experiment, cells were washed with assay buffer (calcium- and magnesium-free Hank's balanced salt solution, 20 mM HEPES, 2 mM CaCl2; AB) and loaded with 4 μM Fluo-4 (P2X2/3) or Calcium 6 (Molecular Devices, according to manufacturer's instructions; P2X3) calcium-sensitive fluorescent dye in 100 μL AB.
(§4) After 1 hour of dye loading at 37° C., 1321N1-hP2X2/3 cells were washed two times with AB and test compound or vehicle added to each well in a total volume of 150 μL AB. HEK-hP2X3 cells were not washed because the Calcium 6 dye kit includes an extracellular dye that quenches unabsorbed Calcium 6 dye; test compound or vehicle were added directly to the assay plates to achieve the appropriate concentration of test compound in a total volume of 150 μL AB.
(§5) After 20 minutes incubation at room temperature and protected from light, the assay plates were loaded into the FlexStation microplate reader and baseline fluorescence measured with an excitation wavelength of 485 nm and emission wavelength readings centered at 525 nm (515 nm cut off).
(§6) The agonist was dispensed by the FlexStation during fluorescence measurement to construct agonist activation and antagonist inhibition curves. The final agonist concentration for inhibition was 1 μM α,β-meATP for P2X3 and 3 μM ATP for P2X2/3. Peak fluorescence was measured and curves generated using a four parameter nonlinear regression equation.

[2] = target: T2, human P2X2/3 (heteromeric P2X2/3 channels) (Homo sapiens, UniProt P56373+Q9UBL9); assay: FlexStation calcium fluorescence assay, heteromeric P2X2/3 channels in 1321N1 cells; type: cell-based; details: for P2X2/3 mean pIC50, R = OMe: Table 3B, Table 2
T2 construct: expressed in transfected cells; host or cells: 1321N1 human astrocytoma cells (1321N1-hP2X2/3)
T2 sequence (P56373 1-397): T1 sequence (P56373 1-397)
T2 sequence (Q9UBL9 1-471): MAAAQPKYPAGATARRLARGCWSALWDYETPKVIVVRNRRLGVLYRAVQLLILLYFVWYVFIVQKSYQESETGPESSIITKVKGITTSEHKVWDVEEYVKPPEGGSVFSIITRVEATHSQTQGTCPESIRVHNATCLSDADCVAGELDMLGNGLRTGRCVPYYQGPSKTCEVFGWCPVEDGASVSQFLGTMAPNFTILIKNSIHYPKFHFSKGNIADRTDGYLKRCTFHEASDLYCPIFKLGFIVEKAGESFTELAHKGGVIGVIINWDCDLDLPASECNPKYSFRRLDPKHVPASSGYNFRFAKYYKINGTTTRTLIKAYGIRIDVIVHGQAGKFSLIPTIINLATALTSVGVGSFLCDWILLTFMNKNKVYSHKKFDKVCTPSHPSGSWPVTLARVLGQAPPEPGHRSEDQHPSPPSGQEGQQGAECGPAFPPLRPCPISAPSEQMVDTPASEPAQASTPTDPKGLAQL
Procedure: as §1, §2, §3, §4, §5, §6

[3] = HEK293 cells, hP2X3, agonist 1 μM α,β-meATP, read-out: Average pIC50 P2X3 (converted)
[4] = 1321N1 cells, hP2X2/3, agonist 3 μM ATP, highest concentration tested is 10 μM, read-out: Average pIC50 P2X2/3 (converted)
[5] = Table 3A, sulfur-linked, hP2X2/3, 1321N1 (astrocytoma) cells, highest concentration tested is 10 μM
[6] = hP2X2/3, 1321N1 (astrocytoma) cells

| SMILES | IC50 [1, 3] [nM] | Selectivity P2X3/P2X2/3 [1] | IC50 [2, 4] [nM] | further results |
| --- | --- | --- | --- | --- |
| COc1cc(Oc2cnc(NC(CCO)CCO)nc2N)c(C(C)C)cc1OC [Compound 21] | 79.4 | 5.0 | 398 | – |
| COc1nc(C(C)C)c(Oc2cnc(N)nc2N)cc1S(C)(=O)=O [Compound 16] | 63.1 | – | > 10000 | – |
| COc1cc(C(C)C)c(Sc2cnc(N)nc2N)cc1I [Compound 4] | 126 | – | 6310 | Selectivity, X = S ([1]; Table 3A, sulfur-linked, P2X3 vs P2X2/3 potency ratio): 48; P2X2/3 mean pIC50, X = S [2, 5]: 5.2 |
| C#Cc1cc(Oc2cnc(N)nc2N)c(C(C)C)nc1OC [Compound 19] | 6.31 | – | 200 | – |
| COc1cc(C(C)C)c(Sc2cnc(N)nc2N)cc1C [Compound 7] | 316 | – | > 10000 | – |
| COc1cc(C(C)C)c(Sc2cnc(N)nc2N)cc1C(=O)O [Compound 12] | 5010 | – | > 10000 | – |
| COc1cc(C(C)C)c(Sc2cnc(N)nc2N)cc1S(N)(=O)=O [Compound 3] | 158 | – | > 10000 | – |
| COc1cc(C(C)C)c(Sc2cnc(N)nc2N)cc1Br [Compound 8] | 200 | – | > 10000 | – |
| COc1cc(C(C)C)c(Sc2cnc(N)nc2N)cc1S(C)(=O)=O [Compound 2] | 501 | – | > 10000 | P2X3 mean pIC50, X = S ([1]; Table 3A, sulfur-linked, hP2X3, HEK293 cells): 6.3; P2X2/3 mean pIC50, X = S [2, 5]: <5 |
| CC#Cc1cc(Sc2cnc(N)nc2N)c(C(C)C)cc1OC [Compound 6] | 794 | – | > 10000 | – |
| COc1cc(Oc2cnc(N)nc2N)c(C(C)C)nc1OC [Compound 13] | 39.8 | – | 200 | – |
| COc1nc(C(C)C)c(Oc2cnc(N)nc2N)cc1I [Compound 15] | 63.1 | 6.5 | 398 | – |
| COc1nc(C(C)C)c(Oc2cnc(N)nc2N)cc1C(F)(F)F [Compound 18] | 63.1 | – | 1580 | – |
| COc1cc(C(C)C)c(Sc2cnc(N)nc2N)cc1C#N [Compound 10] | > 10000 | – | > 10000 | – |
| C#Cc1cc(Sc2cnc(N)nc2N)c(C(C)C)cc1OC [Compound 5] | 39.8 | – | 3980 | – |
| COc1nc(C(C)C)c(Oc2cnc(N)nc2N)cc1S(N)(=O)=O [Compound 20] | 20 | – | 398 | – |
| COc1cc(Sc2cnc(N)nc2N)c(C(C)C)cc1OC [Compound 1] | – | – | – | Average pIC50 P2X3 ([1]; HEK293 cells, hP2X3, agonist 1 μM α,β-meATP): 7.0; P2X3 mean pIC50, X = S ([1]; Table 3A, sulfur-linked, hP2X3, HEK293 cells, listed as Row A, X = S): 7.0; IC50 ([1]; Table 3A, sulfur-linked, hP2X3, HEK293 cells, read-out: P2X3 mean pIC50, X = S (converted)): 100 nM; Average pIC50 P2X2/3 ([2]; 1321N1 cells, hP2X2/3, agonist 3 μM ATP, highest concentration tested is 10 μM): <5; P2X2/3 mean pIC50, X = S ([2]; Table 3A, sulfur-linked, hP2X2/3, 1321N1 (astrocytoma) cells, highest concentration tested is 10 μM, listed as Row A, X = S): <5; IC50 ([2]; Table 3A, sulfur-linked, hP2X2/3, 1321N1 (astrocytoma) cells, highest concentration tested is 10 μM, read-out: P2X2/3 mean pIC50, X = S (converted)): > 10000 nM |

Further lines, with some results ahead:

| IC50 [1, 3] [nM] | Selectivity P2X3/P2X2/3 [1] | IC50 [2, 4] [nM] | SMILES | further results |
| --- | --- | --- | --- | --- |
| 794 | 1.6 | 1260 | COc1cc(Oc2cnc(N)nc2NC2CC2)c(C(C)C)cc1OC [Compound 32] | – |
| 1580 | >6.4 | > 10000 | CNc1nc(N)ncc1Oc1cc(OC)c(OC)cc1C(C)C [Compound 34] | – |
| 631 | 4.3 | 2510 | COc1cc(Oc2cnc(NCC(C)C)nc2N)c(C(C)C)cc1OC [Compound 25] | – |
| 49 | – | 1380 | COc1cc(Nc2cnc(N)nc2N)c(C(C)C)cc1OC [Compound 47] | – |
| 1000 | >10 | > 10000 | COc1cc(Oc2cnc(N)nc2Nc2cnccn2)c(C(C)C)cc1OC [Compound 44] | – |
| 1000 | >10 | > 10000 | COc1cc(Oc2cnc(N)nc2NCCO)c(C(C)C)cc1OC [Compound 37] | – |
| 158 | 17 | 2510 | COc1cc(Oc2cnc(N)nc2NCCN(C)C)c(C(C)C)cc1OC [Compound 38] | – |
| 1580 | >5.9 | > 10000 | COCCOCCNc1ncc(Oc2cc(OC)c(OC)cc2C(C)C)c(N)n1 [Compound 24] | – |
| 3980 | >2.5 | > 10000 | COc1cc(Oc2cnc(N)nc2NC(C)C)c(C(C)C)cc1OC [Compound 35] | – |
| 200 | 2.5 | 501 | COc1cc(Oc2cnc(NC3CCC3)nc2N)c(C(C)C)cc1OC [Compound 27] | – |
| 631 | >15 | > 10000 | COc1cc(Oc2cnc(N)nc2NCC(C)C)c(C(C)C)cc1OC [Compound 33] | – |
| 316 | 20 | 6310 | COc1cc(Oc2cnc(N)nc2NC2CCN(C)CC2)c(C(C)C)cc1OC [Compound 39] | – |
| 398 | 9.3 | 3160 | CCNc1ncc(Oc2cc(OC)c(OC)cc2C(C)C)c(N)n1 [Compound 29] | – |
| 631 | 4.8 | 3160 | COc1cc(Oc2cnc(N)nc2NCc2ccccc2)c(C(C)C)cc1OC [Compound 46] | – |
| 1000 | >10 | > 10000 | COc1cc(Oc2cnc(N)nc2Nc2ccccc2)c(C(C)C)cc1OC [Compound 42] | – |
| 398 | >27 | > 10000 | COc1cc(Oc2cnc(N)nc2NCCS(C)(=O)=O)c(C(C)C)cc1OC [Compound 41] | – |
| 1260 | >8 | > 10000 | COc1cc(Oc2cnc(N)nc2NC2CCOCC2)c(C(C)C)cc1OC [Compound 40] | – |
| 1000 | >10.5 | > 10000 | COc1cc(Oc2cnc(NC(C)(C)C)nc2N)c(C(C)C)cc1OC [Compound 23] | – |
| 200 | 21 | 3980 | COc1cc(Oc2cnc(NCC(O)CO)nc2N)c(C(C)C)cc1OC (stereo not shown) [Compound 31] | Selectivity, R = OMe ([1]; P2X3 vs P2X2/3 potency ratio): 20; P2X3 mean pIC50, R = OMe ([1]; hP2X3, HEK293 cells): 6.7; P2X2/3 mean pIC50, R = OMe [2, 6]: 5.4 |
| 631 | 5.4 | 3160 | COc1cc(Oc2cnc(NC3CC3)nc2N)c(C(C)C)cc1OC [Compound 26] | – |
| 398 | 3.2 | 1260 | COc1cc(Oc2cnc(NC3CCOCC3)nc2N)c(C(C)C)cc1OC [Compound 28] | – |
| 126 | 4.9 | 631 | COc1cc(Oc2cnc(NC(CO)CO)nc2N)c(C(C)C)cc1OC [Compound 30] | Selectivity, R = OMe ([1]; P2X3 vs P2X2/3 potency ratio): 5.0; P2X3 mean pIC50, R = OMe ([1]; hP2X3, HEK293 cells): 6.9; P2X2/3 mean pIC50, R = OMe [2, 6]: 6.2 |
